Counter-ions that a name gives are not always drawn.

The IC50 is the concentration at which inhibition is half-maximal. Higher therefore signals weaker potency.

In the first data set the test system is absorption of phosphorus. The data set can be described thus: Evaluation of efficacy as phosphorus absorption inhibitors: serum radioactivity AUC (0-120 min) after oral 32P NaH2PO4 in rats, inhibitory rate. The format is in vivo. The settings on record: rats of SD line, oral dose 50 mg/5 mL/kg, 32P NaH2PO4 given orally 5 min later, serum radioactivity AUC 0-120 min vs control. The procedure:
Seven-week-old male rats of SD line (available from SANKYO Labo-Service Co., Ltd.), as test animals, were kept and acclimatized using the usual feed (Solid CRF-1 available from ORIENTAL Yeast Co., Ltd.) and they were used in the following tests after they were fasted overnight. Each candidate substance (synthesized compound) dissolved in distilled water for injection (Otsuka Pharmaceutical Co., Ltd.) was orally administered in a dose of 100 mg/5 mL/kg or 50 mg/5 mL/kg and after 5 minutes from the administration, 3 mg/3 mL/kg, 1 MBq/kg of an NaH2PO4 solution containing ^32P (available from PerkinElmer Company) was orally administered. Subsequently, the blood was collected with the elapse of time through the caudal vein of the test animal to thus obtain the serum thereof and the radioactivity of 40 μL of the serum was determined using a liquid scintillation counter. The inhibitory rate (%) for each candidate compound was calculated on the basis of the foregoing measured values according to the following equation: […]
Take “TETA(Phe-αOrnOrn)4 Hydrochloride [Example 49]”: the “50 mg/kg Inhibition (%)” value is listed as 74%.
For the compound “TETA[Phe-Orn(Orn)2]4 Hydrochloride [Example 51]”, the “50 mg/kg Inhibition (%)” value turned out to be 62%.
For “TETA (Trp-Orn-Dab)4 Hydrochloride [Example 56]”, the “50 mg/kg Inhibition (%)” value is recorded as 71%.
On to “TETA[Orn(Orn)2]2(Orn)2 Hydrochloride [Example 39]”, for which the “50 mg/kg Inhibition (%)” value is on record as 55) %.
As to “TETA(OrnOrn)2(PheOrn)2 Hydrochloride [Example 50]”, the “50 mg/kg Inhibition (%)” value is reported as 79%.
The same measure, in the same setting: then “TETA(OrnOrnOrn)2(ProOrnOrn)2 Hydrochloride [Example 65]”, with 57%; and “TETA(OrnPheOrn)4 Hydrochloride [Example 70]”, with 57%.
On the same count and under the same terms, the same measure for “TETA[Orn(Dab)2]4 Hydrochloride [Example 41]”: 58) %; for “TETA(PheDab)4 Hydrochloride [Example 63]”: 73%; for “TETA(4-NH2Bz)4(Orn)4(Orn)8 Hydrochloride [Example 62]”: 66%.
On the same count and under the same terms, the same measure for “TETA(Orn)2[Orn(Orn)2]2 TFA Salt [Example 34]”: 63%.
“TETA(ProOrnOrn)2(OrnOrnOrn)2 Hydrochloride [Example 66]”: the “50 mg/kg Inhibition (%)” value was determined as 56%.
In the case of “TAA[PheDab(Dab)2]3 Hydrochloride [Example 71]”, the “50 mg/kg Inhibition (%)” value is 54%.
The same measure, in the same setting: then “TETA(PheOrn)2[Orn(Orn)Orn]2 Hydrochloride [Example 43]”, with 60%; and “TETA(TyrOrn)2(OrnOrn)2 Hydrochloride [Example 52]”, with 59) %.
As for “TAA[3,5-NH2Bz(Orn)2]3 Hydrochloride [Example 72]”, the “50 mg/kg Inhibition (%)” value was 79%.
Still for that read-out and setting: the same measure for TETA[Lys(Dab)2]4 TFA Salt [Example 54]: 53%; for “TETA(OrnPheDab)4 Hydrochloride [Example 69]”: 67%; for “TETA(PheOrnDab)4 Hydrochloride [Example 67]”: 84%.
Regarding “TAA(PheOrnOrn)3 Hydrochloride [Example 48]”, the “50 mg/kg Inhibition (%)” value was determined as 74%.
Same read-out and setting: then “TAA[(Benzoyl-4-methylene)DETA]3 Hydrochloride [Example 76]”, with 78%; and “TETA(D-Phe-Orn-Orn)4 Hydrochloride [Example 55]”, with 85%.
The same measure, in the same setting: the same measure for “TETA(OrnOrn)2(ChaOrn)2 Hydrochloride [Example 58]”: 79%; for “TETA[PheAsp(DETA)]4 Hydrochloride [Example 74]”: 79%.
The same measure, in the same setting: then TETA[Orn(Dab)2]4 TFA Salt [Example 35], with 58%; and “TETA(PheOrn(3-Ala)4 Hydrochloride [Example 68]”, with 73%.
As to “TETA(TrpOrn)2(OrnOrn)2 Hydrochloride [Example 47]”, the “50 mg/kg Inhibition (%)” value is listed as 72%.
Still for that read-out and setting: the same measure for “TETA(TyrOrn)2(OrnOrn)2 TFA Salt [Example 42]”: 59%.
Still for that read-out and setting: then “TETA[Dab(Dab)2]4 Hydrochloride [Example 53]”, with 60%.
On the same count and under the same terms, the same measure for “TETA(OrnOrn)2(LeuOrn)2 Hydrochloride [Example 73]”: 52%; for “TAA(TrpOrnOrn)3 Hydrochloride [Example 60]”: 64%; for “TETA(Orn)2[Dab(Dab)2]2 Hydrochloride [Example 59]”: 57%.
In the case of “TETA(Phe-δOrnOrn)5 Hydrochloride [Example 45]”, the “50 mg/kg Inhibition (%)” value is recorded as 76%.
Still for that read-out and setting: the same measure for “TETA(LeuOrn)4 Hydrochloride [Example 75]”: 55%; for “TETA[Orn(Orn)2]2(Orn)2 TFA Salt [Example 36]”: 55%; for “TETA(Phe-δOrnOrn)4 Hydrochloride [Example 40]”: 76%.
On the same count and under the same terms, the same measure for “TEPA(PheOrn)5 Hydrochloride [Example 64]”: 87%; for “TAA(TrpOrnDab)3 Hydrochloride [Example 61]”: 70%; for “TETA(PheOrn)2(OrnOrn)2 Hydrochloride [Example 37]”: 60%.
“TETA(Orn)2[Orn(Orn)2]2 Hydrochloride [Example 38]”: the “50 mg/kg Inhibition (%)” value was 63) %.
On the same count and under the same terms, the same measure for “TETA(D-PheOrn)2(OrnOrn)2 Hydrochloride [Example 46]”: 62%.
On the same count and under the same terms, the same measure for “TETA(PheOrn)4 Hydrochloride [Example 57]”: 69%.

The same data set, now with this note: rats of SD line, oral dose 100 mg/5 mL/kg, 32P NaH2PO4 given orally 5 min later, serum radioactivity AUC 0-120 min vs control.
Turning to `NCCC[C@H](N)C(=O)NCCCN(CCCCN(CCCNC(=O)[C@@H](N)CCCN)C(=O)[C@@H](N)CCCN)C(=O)[C@@H](N)CCCN` [Example 4, SPM(Orn)4 Hydrochloride], the “Inhibitory Rate (%) of Phosphorus Absorption” value worked out at 58%.
The same measure, in the same setting: then SPM(Orn)12 Hydrochloride [Example 8], with 63%; and `NCCCC[C@H](N)C(=O)NCCCC[C@H](NC(=O)[C@@H](N)CCCCN)C(=O)NCCCNCCCCNCCCNC(=O)[C@H](CCCCNC(=O)[C@@H](N)CCCCN)NC(=O)[C@@H](N)CCCCN` [Example 7, SPM(Lys)6 Hydrochloride], with 24%.
The same measure, in the same setting: the same measure for SPM(Lys)9 Hydrochloride [Example 27]: 64%.
On the same count and under the same terms, the same measure for SPM(Orn)2 Hydrochloride [Example 17]: 30%; for SPM(Orn)8 Hydrochloride [Example 22]: 60%; for `NCCCC[C@H](NC(=O)[C@@H](N)CCCCN)C(=O)NCCCC[C@H](N)C(=O)NCCCN(CCCCN(CCCNC(=O)[C@@H](N)CCCCNC(=O)[C@H](CCCCN)NC(=O)[C@@H](N)CCCCN)C(=O)[C@@H](N)CCCCNC(=O)[C@H](CCCCN)NC(=O)[C@@H](N)CCCCN)C(=O)[C@@H](N)CCCCNC(=O)[C@H](CCCCN)NC(=O)[C@@H](N)CCCCN` [Example 29, SPM(Lys)12 Hydrochloride]: 55%.
As for “SPM(Lys)2(Orn)2 Hydrochloride [Example 10]”, the “Inhibitory Rate (%) of Phosphorus Absorption” value is 30%.
The same measure, in the same setting: the same measure for “SPM(Lys)2(Arg)2 Hydrochloride [Example 23]”: 45%; for SPM(Orn)4 Hydrochloride [Example 9]: 30%; for “SPM(Arg)2(Lys)2 Hydrochloride [Example 19]”: 35%.
Still for that read-out and setting: then SPM(Lys)8 Hydrochloride [Example 11], with 44%.

System in the next data set: not listed separately
The data set can be described thus: in vitro. It is filed as cell-based.
Details: not given
The procedure:
MDCK Cells were inoculated into wells of a 96-well plate filled with D-MEM/F12 culture medium (available from GIBCO Company) supplemented with 10% FBS (available from TISSUE CULTURE BIOLOGICALS Company). After the cultivation of the cells for 3 days in a CO2 incubator, the culture medium was removed, a culture medium, in which each candidate substance (synthesized compound) had been dissolved, was added, followed by the cultivation for one day. To each well, there was added 10 μL of Cell Count Reagent SF (available from NAKARAI TESUKU K.K.), followed by the cultivation thereof for 2 hours and the subsequent determination of the absorbance observed at a wavelength of 460 nm. The IC50 values each were calculated on the basis of these measured values.
For the compound `NCCCC[C@H](N)C(=O)NCCCC[C@H](NC(=O)[C@@H](N)CCCCN)C(=O)NCCCNCCCCNCCCNC(=O)[C@H](CCCCNC(=O)[C@@H](N)CCCCN)NC(=O)[C@@H](N)CCCCN` [Example 7, SPM(Lys)6 Hydrochloride], the half-maximal inhibitory concentration (IC50) is > 10000 µg/mL.

Staying with this data set, now noted: dog.
As to `NCCC[C@H](N)C(=O)NCCCN(CCCCN(CCCNC(=O)[C@@H](N)CCCN)C(=O)[C@@H](N)CCCN)C(=O)[C@@H](N)CCCN` [Example 4, SPM(Orn)4 Hydrochloride], the IC50 at 1 day is > 10000 µg/mL.
Same read-out and setting: the same measure for `NCCCC[C@H](NC(=O)[C@@H](N)CCCCN)C(=O)NCCCC[C@H](N)C(=O)NCCCN(CCCCN(CCCNC(=O)[C@@H](N)CCCCNC(=O)[C@H](CCCCN)NC(=O)[C@@H](N)CCCCN)C(=O)[C@@H](N)CCCCNC(=O)[C@H](CCCCN)NC(=O)[C@@H](N)CCCCN)C(=O)[C@@H](N)CCCCNC(=O)[C@H](CCCCN)NC(=O)[C@@H](N)CCCCN` [Example 29, SPM(Lys)12 Hydrochloride]: > 10000 µg/mL.

The record behind these values is US20100093973A1, “POLY(AMINO ACID) COMPOUND HAVING INHIBITORY ACTIVITY ON ABSORPTION OF PHOSPHORUS AND PHOSPHORUS ABSORPTION INHIBITOR” (priority 2007, published 2010).
